These results are taken from patent publication US6767991B1, “Hepatitis C inhibitor peptides” (priority 1997, dated 2004).

*1 amine or outer side, *2 acyl side, *3 side chain or, on linkers, in order; H or OH if unused. Where a SMILES comes first, the peptide text is derived from it. Where no end group is shown, it is not given here. [ ]: non-standard residue; d: D form. The star is where a group is joined. CH2(1-naphthyl) = c1ccc2c(C*)cccc2c1; mXylylene = c1cc(C[*:1])cc(C[*:2])c1; oXylylene = c1ccc(C[*:2])c(C[*:1])c1; Hyp = O=C(O)[C@@H]1C[C@@H](O)CN1; AllylGly = C=CC[C@H](N)C(=O)O; Chg = N[C@H](C(=O)O)C1CCCCC1; Tle = CC(C)(C)[C@H](N)C(=O)O; Pip = O=C(O)[C@@H]1CCCCN1; X5 = CC(C)(C)c1ccc(C*)cc1; Nva = CCC[C@H](N)C(=O)O; Abu = CC[C@H](N)C(=O)O; Meb = Cc1ccc(C*)cc1; Bn = c1ccc(C*)cc1

For one experiment, the target named is T1, recombinant HCV NS3 protease type 1b (Hepatitis C virus genotype 1b, UniProt P26663).
T1 construct: recombinant HCV NS3 protease (amino acid 1027 to 1206) was cloned in the pET11d bacterial expression vector; made in house; host or cells: E. coli BL21(DE3)pLysS
T1 sequence (P26663 1027-1206): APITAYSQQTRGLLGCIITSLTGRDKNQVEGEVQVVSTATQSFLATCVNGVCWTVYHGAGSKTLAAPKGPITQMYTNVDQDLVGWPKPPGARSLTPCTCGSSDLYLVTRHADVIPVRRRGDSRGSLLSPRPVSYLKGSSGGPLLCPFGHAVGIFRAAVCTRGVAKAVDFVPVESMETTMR
As to the kind of experiment: Recombinant HCV NS3 protease radiometric assay. Type of experiment: biochemical, HCV genotype 1b.
Conditions: not given
The text has this:
Cloning, Expression and Purification of the Recombinant HCV NS3 Protease type 1b.
Serum from an HCV-infected patient was obtained through an external collaboration (Bernard Willems MD, Hôpital St-Luc. Montréal. Canada and Dr. Donald Murphy, Laboratoire de Santé Publique du Québec, Ste-Anne de Bellevue, Canada). An engineered full-length cDNA template of the HCV genome was constructed from DNA fragments obtained by reverse transcription-PCR (RT-PCR) of serum RNA and using specific primers selected on the basis of homology between other genotype 1b strains. From the determination of the entire genomic sequence, a genotype 1b was assigned to the HCV isolate according to the classification of Simmonds et al. (J. Clin. Microbiol., (1993), 31, p.1493-1503). […] A DNA fragment encoding the polyprotein precursor (NS3/NS4A/NS4B/NS5A/NS5B) was generated by PCR and introduced into eukaryotic expression vectors. […] The mature NS3 protein was not observed with expression of a polyprotein precursor containing the mutation S1165A, which inactivates the NS3 protease, confirming the functionality of the HCV NS3 protease.
The DNA fragment encoding the recombinant HCV NS3 protease (amino acid 1027 to 1206) was cloned in the pET11d bacterial expression vector. The NS3 protease expression in E. coli BL21(DE3)pLysS was induced by incubation with 1 mM IPTG for 3 h at 22° C. A typical fermentation (18 L) yielded approximately 100 g of wet cell paste. The cells were resuspended in lysis buffer (3.0 mL/g) consisting of 25 mM sodium phosphate, pH 7.5, 10% glycerol (v/v), 1 mM EDTA, 0.01% NP-40 and stored at −80° C. Cells were thawed and homogenized following the addition of 5 mM DTT. Magnesium chloride and DNase were then added to the homogenate at final concentrations of 20 mM and 20 μg/mL respectively. After a 25 min incubation at 4° C., the homogenate was sonicated and centrifuged at 15000×g for 30 min at 4° C. The pH of the supernatant was then adjusted to 6.5 using a 1 M sodium phosphate solution.
An additional gel filtration chromatography step was added to the 2 step purification procedure described in WO 95/22985 (incorporated herein by reference). Briefly, the supernatant from the bacterial extract was loaded on a SP HiTrap column (Pharmacia) previously equilibrated at a flow rate of 2 mL/min in buffer A (50 mM sodium phosphate. pH 6.5, […], 1 mM EDTA, 5 mM DTT, 0.01% NP-40). The column was then washed with buffer A containing 0.15 M NaCl and the protease eluted by applying 10 column volumes of a linear 0.15 to 0.3 M NaCl gradient. NS3 protease-containing fractions were pooled and diluted to a final NaCl concentration of 0.1 M. The enzyme was further purified on a HiTrap Heparin column (Pharmacia) equilibrated in buffer B (25 mM sodium phosphate, pH 7.5, 10% glycerol, 5 mM DTT, 0.01% NP-40). The sample was loaded at a flow rate of 3 mL/min. The column was then washed with buffer B containing 0.15 M NaCl at a flow rate of 1.5 mL/min. Two step washes were performed in the presence of buffer B containing 0.3 or 1 M NaCl. The protease was recovered in the 0.3M NaCl wash, diluted 3-fold with buffer B, reapplied on the HiTrap Heparin column and eluted with buffer B containing 0.4 M NaCl. Finally, the NS3 protease-containing fractions were applied on a Superdex 75 HiLoad 16/60 column (Pharmacia) equilibrated in buffer B containing 0.3 M NaCl. The purity of the HCV NS3 protease obtained from the pooled tractions was judged to be greater than 95% by SDS-PAGE followed by densitometry analysis.
The enzyme was stored at −80° C. and was thawed on ice and diluted just prior to use.
Recombinant HCV NS3 Protease Radiometric Assay
The substrate used for the HCV NS3 protease radiometric assay, DDIVPC-SMSYTW [SEQ. ID NO. 2], is cleaved between the cysteine and the serine residues by the enzyme. The sequence DDIVPC-SMSYTW [SEQ. ID NO. 2] corresponds to the NS5A/NS5B natural cleavage site in which the cysteine residue in P2 has been substituted for a proline. […]
By IC50 is commonly meant the midpoint of a concentration-inhibition curve. As for `CC[C@H](NC(=O)[C@@H](NC(=O)[C@@H](NC(=O)[C@H](CC(=O)O)NC(=O)[C@H](CC(=O)O)NC(C)=O)[C@@H](C)CC)C(C)C)C(=O)N[C@@H](CS)C(=O)O` [compound 115] (Ac-DDIV[Abu]C-OH; C-terminus assumed), the half-inhibitory concentration (IC50) was found to be 58 µM. On to Ac-DEIVPC [compound 106], for which the IC50 was found to be 16 µM. For the compound `CC(=O)N[C@@H](CC(=O)O)C(=O)N[C@@H](CC(=O)O)C(=O)N[C@H](C(=O)N[C@H](C(=O)N1CCC[C@H]1C(=O)N[C@@H](CS)C(=O)O)C(C)C)C1CCCCC1` [compound 110] (Ac-DD[Chg]VPC-OH; C-terminus assumed), the IC50 was found to be 24 µM. Take Ac-DDVVPC [compound 109]: the half-maximal inhibitory concentration (IC50) is 80 µM. For the compound Ac-DDIVVC [compound 118], the IC50 stood at 133 µM.

As to `CCC[C@H](NC(=O)[C@@H]1C[C@@H](OCc2ccc(C)cc2)CN1C(=O)[C@@H](NC(=O)[C@@H](NC(=O)[C@H](CC(=O)O)NC(=O)[C@H](CC(=O)O)NC(C)=O)[C@@H](C)CC)C(C)C)C(=O)O` [compound 206] (Ac-DDIV[Hyp](Meb)[Nva]-OH), the IC50 came to 6.4 µM. Ac-DDIIPC [compound 113]: the half-maximal inhibitory concentration (IC50) worked out at 56 µM. For the compound Ac-DDIVAC [compound 120], the concentration for half-maximal inhibition (IC50) worked out at 76 µM. For `CCC[C@H](NC(=O)[C@@H]1C[C@@H](OCc2ccccc2C)CN1C(=O)[C@@H](NC(=O)[C@@H](NC(=O)[C@H](CC(=O)O)NC(=O)[C@H](CC(=O)O)NC(C)=O)[C@@H](C)CC)C(C)C)C(=O)O` [compound 204] (Ac-DDIV[Hyp](oXylylene)[Nva]-OH; C-terminus assumed), the IC50 was 9.4 µM.

As for Ac-DDLVPC [compound 112], the IC50 stood at 92 µM.

Consider `CC[C@H](C)[C@H](NC(=O)[C@H](CC(=O)O)NC(=O)[C@H](CC(=O)O)NC(C)=O)C(=O)N[C@H](C(=O)N1CCC[C@H]1C(=O)N[C@@H](CS)C(=O)O)C1CCCCC1` [compound 114] (Ac-DDI[Chg]PC-OH; C-terminus assumed), for which the half-maximal inhibitory concentration (IC50) amounted to 50 µM. On to Ac-DDIVLC [compound 116], for which the half-inhibitory concentration (IC50) is 16 µM.

For `CCC[C@H](NC(=O)[C@@H]1C[C@@H](OCc2cccc(C)c2)CN1C(=O)[C@@H](NC(=O)[C@@H](NC(=O)[C@H](CC(=O)O)NC(=O)[C@H](CC(=O)O)NC(C)=O)[C@@H](C)CC)C(C)C)C(=O)O` [compound 205] (Ac-DDIV[Hyp](mXylylene)[Nva]-OH; C-terminus assumed), the half-maximal inhibitory concentration (IC50) was determined as 6.7 µM. Consider `CCC[C@H](NC(=O)[C@@H]1CCCCN1C(=O)[C@@H](NC(=O)[C@@H](NC(=O)[C@H](CC(=O)O)NC(=O)[C@H](CC(=O)O)NC(C)=O)[C@@H](C)CC)C(C)C)C(=O)O` [compound 127] (Ac-DDIV[Pip][Nva]-OH; C-terminus assumed), for which the IC50 came out at 605 µM.

Consider Ac-DVIVPC [compound 107], for which the IC50 is 85 µM.

On to Ac-DDIVFC [compound 117], for which the IC50 was determined as 25 µM. For `CCC[C@H](NC(=O)[C@@H]1CCCN1C(=O)[C@@H](NC(=O)[C@@H](NC(=O)[C@@H](NC(=O)[C@H](CC(=O)O)NC(C)=O)C(C)(C)C)[C@@H](C)CC)C(C)C)C(=O)O` [compound 129] (Ac-D[Tle]IVP[Nva]-OH; C-terminus assumed), the IC50 was determined as 270 µM.

For the next experiment, the target named is T2, HCV NS3 protease type 1b/NS4A cofactor peptide (Hepatitis C virus genotype 1b, UniProt P26663).
T2 construct: recombinant HCV NS3 protease (amino acid 1027 to 1206) was cloned in the pET11d bacterial expression vector; made in house; host or cells: E. coli BL21(DE3)pLysS
T2 sequence (P26663 1027-1206, other chains not shown): as the sequence (P26663 1027-1206) above
As to the kind of experiment: Recombinant HCV NS3 protease/NS4A cofactor peptide radiometric assay. In kind it is biochemical, HCV genotype 1b. Conditions: Table 1, unmarked values: NS3 protease/NS4A cofactor peptide radiometric assay; read-out: IC50. The protocol:
Recombinant HCV NS3 Protease/NS4A Cofactor Peptide Radiometric Assay.
The enzyme was stored at −80° C., thawed on ice and diluted just prior to use in the assay buffer containing the NS4A cofactor peptide.
The substrate used for the NS3 protease/NS4A cofactor peptide radiometric assay, DDIVPC-SMSYTW [SEQ. ID NO. 2], is cleaved between the cysteine and the serine residues by the enzyme. The sequence DDIVPC-SMSYTW [SEQ. ID NO. 2] corresponds to the NS5A/NS5B natural cleavage site in which the cysteine residue in P2 has been substituted for a proline. The peptide substrate DDIVPC-SMSYTW [SEQ. ID NO. […] ID NO. […] [SEQ. ID NO. 5] (molar ratio enzyme: cofactor 1:100) in the absence or presence of inhibitors. The separation of substrate from products is performed by adding avidin-coated agarose beads to the assay mixture followed by filtration. […] ID NO. 4] product found in the filtrate allows for the calculation of the percentage of substrate conversion and of the percentage of inhibition.
Tris and Tris-HCl (UltraPure) were obtained from Gibco-BRL. Glycerol (UltraPure), MES and BSA were purchased from Sigma. TCEP was obtained from Pierce, DMSO from Aldrich and NaOH from Anachemia.
Assay buffer: 50 mM Tris HCl, pH 7.5, 30% (w/v) glycerol, 1 mg/mL BSA, 1 mM TCEP (TCEP added just prior to use from a 1 M stock solution in water).
Substrate: […] [SEQ. ID NO.
ID NO. 3] (˜1 nM final concentration).
The assay was performed in a 96-well polypropylene plate from Costar. Each well contained:
20 μL substrate/tracer in assay buffer;
10 μL±inhibitor in 20% DMSO/assay buffer;
10 μL NS3 protease 1b/NS4 cofactor peptide (molar ratio 1:100).
Blank (no inhibitor and no enzyme) and control (no inhibitor) were also prepared on the same assay plate.
The enzymatic reaction was initiated by the addition of the enzyme/NS4A peptide solution and the assay mixture was incubated for 40 min at 23° C. under gentle agitation. Ten (10) μL of 0.5N NaOH were added and 10 μL 1 M MES, pH 5.8 were added to quench the enzymatic reaction.
Twenty (20) μL of avidin-coated agarose beads (purchased from Pierce) were added in a Millipore MADP N65 filtration plate. The quenched assay mixture was transferred to the filtration plate, and incubated for 60 min at 23° C. under gentle agitation.
The plates were filtered using a Millipore MultiScreen Vacuum Manifold Filtration apparatus, and 40 μL of the filtrate was transferred in an opaque 96-well plate containing 60 μL of scintillation fluid per well.
The % inhibition was calculated with the following equation:
100-[(countsinh-countsblank)/(countsctl-countsblank)×100]
For Ac-EDIVPC [compound 102], the IC50 was found to be 59 µM. Same read-out and setting: for `C=CC[C@H](NC(=O)[C@@H]1CCCN1C(=O)[C@@H](NC(=O)[C@@H](NC(=O)[C@H](CC(=O)O)NC(=O)[C@H](CC(=O)O)NC(C)=O)[C@@H](C)CC)C(C)C)C(=O)O` [compound 124] (Ac-DDIVP[AllylGly]-OH) the value was 210 µM.

Still in this experiment, the particulars now being: Table 2, unmarked values: NS3 protease/NS4A cofactor peptide radiometric assay; read-out: IC50.
On to `CCC[C@H](NC(=O)[C@@H]1C[C@@H](OCc2cccc3ccccc23)CN1C(=O)[C@@H](NC(=O)[C@@H](NC(=O)[C@H](CC(=O)O)NC(C)=O)[C@@H](C)CC)C(C)C)C(=O)O` [compound 219] (Ac-DIV[Hyp](CH2(1-naphthyl))[Nva]-OH), for which the IC50 was 2.3 µM. In the case of `CCC[C@H](NC(=O)[C@@H]1C[C@@H](OCc2ccc(C(C)(C)C)cc2)CN1C(=O)[C@@H](NC(=O)[C@@H](NC(=O)[C@H](CC(=O)O)NC(=O)[C@H](CC(=O)O)NC(C)=O)[C@@H](C)CC)C(C)C)C(=O)O` [compound 209] (Ac-DDIV[Hyp](X5)[Nva]-OH), the IC50 is 2.6 µM.

Take `CCC[C@H](NC(=O)[C@@H]1C[C@@H](OCc2ccccc2)CN1C(=O)[C@@H](NC(=O)[C@@H](NC(=O)[C@H](CC(=O)O)NC(=O)[C@H](CC(=O)O)NC(C)=O)[C@@H](C)CC)C(C)C)C(=O)O` [compound 201] (Ac-DDIV[Hyp](Bn)[Nva]-OH): the half-inhibitory concentration (IC50) came to 7.2 µM.

Consider `CCC[C@H](NC(=O)[C@@H]1C[C@@H](OCc2cccc3ccccc23)CN1C(=O)[C@@H](NC(=O)[C@@H](NC(C)=O)C1CCCCC1)C(C)C)C(=O)O` [compound 252] (Ac-[Chg]V[Hyp](CH2(1-naphthyl))[Nva]-OH), for which the half-maximal inhibitory concentration (IC50) amounted to 20 µM.
